US5480971A, “Peralkylated oligopeptide mixtures” (Houghten Pharmaceuticals, Inc., priority 1994, dated 1996)
Values after ≈ are worked out from the molar mass of the structure shown. Square brackets hold non-standard residues; d marks the D form. Ends that are not written are not given here. Peptide text beside a SMILES is read from it. * marks the point of attachment. X1 = C[N+](C)(C)[C@@H](Cc1ccccc1)C(=O)*; X2 = CC(C)C[C@@H](C(=O)*)[N+](C)(C)C; NMeF = CN[C@@H](Cc1ccccc1)C(=O)O; NMeI = CC[C@H](C)[C@H](NC)C(=O)O

Experiments:
[1] = test system: Staphylococcus aureus (ATCC 29213); test: microbe, parasite or virus in culture; details: for MIC: Staphylococcus aureus, ATCC29213, read-out: MIC Value; for MIC Value: Table 4, minimum concentration needed to inhibit about 100 percent bacterial growth; for S. aureus MIC: no change in OD620 between time 0 and 21 hours; for S. aureus IC50: Example 8, individual peptides
Description: Concentrations of those 5X permethylated peptide mixtures that inhibited cellular growth by 50 percent (IC50) values were determined.
This culture was reinoculated and incubated at 37° C. to reach the exponential phase of bacterial growth; i.e., a final bacterial suspension containing about 10^5 to 5×10^5 colony-forming units (CFU)/ml. The concentration of cells was established by plating 100 μl of different dilutions of the culture solution (e.g., 10^-2, 10^-3 and 10^-4) onto solid agar plates. Following an overnight (about 18 hours) incubation at 37° C., the CFU thus formed were counted on each agar plate.
96-Well tissue culture plates were utilized, with eight wells per plate containing only medium as control blanks, whereas eight other wells contained medium plus cells as a positive growth control. These controls were used to detect possible medium contamination and to provide a measure of uninhibited growth of the microorganisms.
For determination of IC50 values (concentrations necessary to inhibit 50 percent growth of bacteria), peralkylated oligopeptide sets were added to the bacterial suspension at concentrations noted before. The plates were incubated overnight (about 18 hours) at 37° C., and the optical density (OD) determined at 620 nm after different times of incubation. IC50 values were then determined from the OD data.
Assays using S. aureus were carried out as described before. […] To initiate the exponential phase of bacterial growth prior to the assay, a sample of bacteria grown overnight (about 18 hours) at 37° C. in cation-adjusted Mueller Hinton broth (CAMM, for E. coli and S. aureus--Becton Dickinson Microbiology Systems, Cockeysville, Md.), or Brain Heart Infusion broth (BHI, for S. sanguis), was reinoculated in a 2X broth and incubated at 37° C. MRSA was grown at 35° C. in cation-adjusted MH broth in a similar manner. Prior to the assay, two colonies of newly grown C. albicans culture were inoculated in 5ml of phosphate buffer saline (PBS-35mM phosphate buffer, 0.15M NaCl-pH 7.0), and diluted in yeast medium broth. The bacteria and yeast suspensions were adjusted turbidimetrically so that a final concentration of 10^5 to 5×10^5 colony-forming units (CFU)/ml was used in all assays.
The plates were then incubated overnight at 37° C. […] The concentration necessary to inhibit 50 percent bacterial growth (IC50) was then calculated using the software program […] (ISI, San Diego, Calif.). […] In a similar manner, the plates containing C. albicans suspension were incubated for 48 hours at 30° C.

[2] = test system: Streptococcus sangus ATCC 10566; test: Assays against S. sanguis (growth inhibition); format: cell-based, Streptococcus sanguis; details: for S. sanguis IC50 / S. sanguis MIC: Table 6
Description: The permethylated amino acid and peptides were screened against S. aureus and Streptoccus sanguis, as described below, and IC50 and MIC (minimum inhibitory concentration; minimum concentration needed to inhibit about 100 percent bacterial growth) values were determined. […]
(§1) Assays using S. aureus were carried out as described before. Methicillin-resistant Staphylococcus aureus (MRSA) ATCC 33591, Streptococcus sangus ATCC 10566, Escherichia coli ATCC 25922 and Candida albicans ATCC 10231 were used in the bioassays (ATCC, Rockville, Md.). To initiate the exponential phase of bacterial growth prior to the assay, a sample of bacteria grown overnight (about 18 hours) at 37° C. in cation-adjusted Mueller Hinton broth (CAMM, for E. coli and S. aureus--Becton Dickinson Microbiology Systems, Cockeysville, Md.), or Brain Heart Infusion broth (BHI, for S. sanguis), was reinoculated in a 2X broth and incubated at 37° C. MRSA was grown at 35° C. in cation-adjusted MH broth in a similar manner. Prior to the assay, two colonies of newly grown C. albicans culture were inoculated in 5ml of phosphate buffer saline (PBS-35mM phosphate buffer, 0.15M NaCl-pH 7.0), and diluted in yeast medium broth. The bacteria and yeast suspensions were adjusted turbidimetrically so that a final concentration of 10^5 to 5×10^5 colony-forming units (CFU)/ml was used in all assays.
(§2) The assays were carried out in 96-well tissue culture plates (Costar, Pleasanton, Calif.) as described in Blondelie et al., Biochemistry, 31:12688-12694 (1992), incorporated herein by reference. In brief, the bacterial suspension was added to an equal volume of the mixture of permeythylated compounds diluted in H2 O at concentrations derived from serial two-fold dilutions varying from 2500 μg/ml to 1 μg/ml. The plates were then incubated overnight at 37° C. The relative percent growth found for each compound (or mixture of compounds) was then determined by the optical density at 620 nm (OD620) using a Titertek Multiskan Plus apparatus (Flow Laboratories, McLean, Va.). The concentration necessary to inhibit 50 percent bacterial growth (IC50) was then calculated using the software program […] (ISI, San Diego, Calif.). […] In a similar manner, the plates containing C. albicans suspension were incubated for 48 hours at 30° C.

[3] = test system: human red blood cells (RBC's); test: Hemolytic activity on human red blood cells; format: cell-based; details: 0.25 percent RBC suspension, one hour at 37° C.
Description: Hemolytic activities of the peptides were determined using human red blood cells (RBC's). The assays were carried out in 96-well tissue culture plates against a 0.25 percent RBC suspension as described in Blondelie et al., Biochim. Biophys. Acta, 1202:331-336 (1993), incorporated herein by reference. Briefly, individual permethylated peptides or peptide mixtures were added to the RBC solution at concentrations derived from serial two-fold dilutions varying from […]. Following a one hour incubation at 37° C., the plates were centrifuged at 2800 rpm for 5 minutes. The supernatant was separated from the pellet and its OD measured at 414 nm. Triton (1 percent) and PBS were used as 100 percent and 0 percent hemolysis controls, respectively.

[4] = Merck Index, 10th ed.; cited from earlier work
[5] = test system: Methicillin-resistant Staphylococcus aureus (MRSA) ATCC 33591; test: Antimicrobial activity against MRSA (growth inhibition); format: cell-based; details: for MRSA MIC: no change in OD620 between time 0 and 21 hours
Description: as §1, §2

CC[C@H]1OC(=O)[C@H](C)[C@@H](O[C@H]2C[C@@](C)(OC)[C@@H](O)[C@H](C)O2)[C@H](C)[C@@H](O[C@@H]2O[C@H](C)C[C@H](N(C)C)[C@H]2O)[C@](C)(O)C[C@@H](C)C(=O)[C@H](C)[C@@H](O)[C@]1(C)O [Erythromycin, reference compound]
MIC [1]: 0.5 µM (≈ 0.367 µg/mL)

Cc1onc(-c2ccccc2)c1C(=O)N[C@@H]1C(=O)N2[C@@H]1SC(C)(C)[C@@H]2C(=O)O [Oxacillin, reference compound]
MIC [1]: 0.125 µM (≈ 0.0502 µg/mL)

CNC(=O)[C@H](Cc1ccccc1)[N+](C)(C)C [PerA-F, permethylated Phe N-methylamide]
MIC Value ([2]; Table 5): > 500 µM | IC50 ([2]; Table 5, average results): > 500 µM | MIC Value [1]: > 500 µM

CNC(=O)[C@H](Cc1ccccc1)N(C)C(=O)[C@H](Cc1ccccc1)N(C)C(=O)[C@H](Cc1ccccc1)N(C)C(=O)[C@H](Cc1ccccc1)N(C)C(=O)[C@H](Cc1ccccc1)N(C)C(=O)[C@H](Cc1ccccc1)[N+](C)(C)C [PerA-FFFFFF, PerM-PhePhePhePhePhePhe] (X1-[NMeF][NMeF][NMeF][NMeF][NMeF]-NHMe)
S. aureus MIC ([1]; listed as permethylated FFFFFF-NH2): lower than 15 μg/ml | % hemolysis at 350 μg/ml [3]: 16%

CC[C@H](C)[C@@H](C(=O)N(C)[C@@H](Cc1ccccc1)C(=O)N(C)[C@@H](Cc1ccccc1)C(=O)N(C)[C@@H](Cc1ccccc1)C(=O)NC)N(C)C(=O)[C@H](Cc1ccccc1)N(C)C(=O)[C@H](Cc1ccccc1)[N+](C)(C)C [PerM-FFIFFF, PerM-PhePheIlePhePhePhe] (X1-[NMeF][NMeI][NMeF][NMeF][NMeF]-NHMe)
S. aureus MIC ([1]; listed as permethylated FFIFFF-NH2): lower than 15 μg/ml | % hemolysis at 350 μg/ml [3]: 0%

CNC(=O)[C@H](Cc1ccccc1)N(C)C(=O)[C@H](Cc1ccccc1)N(C)C(=O)[C@H](Cc1ccccc1)N(C)C(=O)[C@H](Cc1ccccc1)N(C)C(=O)[C@H](Cc1ccccc1)N(C)C(=O)[C@H](CC(C)C)[N+](C)(C)C [PerM-LFFFFF, PerM-LeuPhePhePhePhePhe] (X2-[NMeF][NMeF][NMeF][NMeF][NMeF]-NHMe)
% hemolysis at 350 μg/ml [3]: 10%

CC[C@H](C)[C@@H](C(=O)N(C)[C@@H](Cc1ccccc1)C(=O)N(C)[C@@H](Cc1ccccc1)C(=O)N(C)[C@@H](Cc1ccccc1)C(=O)NC)N(C)C(=O)[C@H](Cc1ccccc1)N(C)C(=O)[C@H](CC(C)C)[N+](C)(C)C [PerM-LFIFFF, PerM-LeuPheIlePhePhePhe] (X2-[NMeF][NMeI][NMeF][NMeF][NMeF]-NHMe)
S. aureus MIC ([1]; listed as permethylated LFIFFF-NH2): lower than 15 μg/ml | % hemolysis at 350 μg/ml [3]: 12%

CC(=O)[C@H]1CC[C@H]2[C@@H]3CCC4=CC(=O)CC[C@]4(C)[C@H]3CC[C@]12C [progesterone]
solubility in water [4]: insoluble in water

C[N+](C)(C)[C@@H](Cc1ccccc1)C(=O)N[C@@H](Cc1ccccc1)C(=O)N[C@@H](Cc1ccccc1)C(=O)N[C@@H](Cc1ccccc1)C(=O)N[C@@H](Cc1ccccc1)C(=O)N[C@@H](Cc1ccccc1)C(N)=O [reference compound] (X1-FFFFF-NH2)
S. aureus IC50 [1]: > 250 µg/mL

N-acetyl hexaPhe amide [N-Ac-hexaPhe, reference compound]
MIC Value [1]: > 500 µM

PerM-LeuPheIlePheHisPhe (LFIFHF; also: permethylated) [PerM-LFIFHF]
S. sanguis IC50 [2]: 13 µg/mL | S. sanguis MIC [2]: 20 to 40 µg/mL | S. aureus IC50 [1]: 12 µg/mL | S. aureus MIC [1]: 21 to 31 µg/mL | % hemolysis at 350 μg/ml [3]: 7% | MRSA IC50 [5]: 14 µg/mL | MRSA MIC [5]: 15 to 21 µg/mL

PerM-LeuPheIlePhePheHis (LFIFFH; also: permethylated) [PerM-LFIFFH]
S. sanguis IC50 [2]: 19 µg/mL | S. sanguis MIC [2]: 30 to 40 µg/mL | S. aureus IC50 [1]: 12 µg/mL | S. aureus MIC [1]: 21 to 31 µg/mL | % hemolysis at 350 μg/ml [3]: 1% | MRSA IC50 [5]: 20 µg/mL | MRSA MIC [5]: 25 to 42 µg/mL

PerM-LeuPhePhePheHisPhe (LFFFHF; also: permethylated) [PerM-LFFFHF]
S. sanguis IC50 [2]: 19 µg/mL | S. sanguis MIC [2]: 30 to 40 µg/mL | S. aureus IC50 [1]: 12 µg/mL | S. aureus MIC [1]: 21 to 31 µg/mL | % hemolysis at 350 μg/ml [3]: 4% | MRSA IC50 [5]: 13 µg/mL | MRSA MIC [5]: 15 to 21 µg/mL

PerM-LeuPhePhePhePheHis (LFFFFH; also: permethylated) [PerM-LFFFFH]
S. sanguis IC50 [2]: 22 µg/mL | S. sanguis MIC [2]: 30 to 40 µg/mL | S. aureus IC50 [1]: 13 µg/mL | S. aureus MIC [1]: 21 to 42 µg/mL | % hemolysis at 350 μg/ml [3]: 3% | MRSA IC50 [5]: 16 µg/mL | MRSA MIC [5]: 21 to 42 µg/mL

PerM-PhePheIlePhePheHis (FFIFFH; also: permethylated) [PerM-FFIFFH]
S. sanguis IC50 [2]: 18 µg/mL | S. sanguis MIC [2]: 30 to 40 µg/mL | S. aureus IC50 [1]: 14 µg/mL | S. aureus MIC [1]: 31 to 42 µg/mL | % hemolysis at 350 μg/ml [3]: 0% | MRSA IC50 [5]: 19 µg/mL | MRSA MIC [5]: 21 to 42 µg/mL

PerM-PhePhePhePheHisPhe (FFFFHF; also: permethylated) [PerM-FFFFHF]
S. sanguis IC50 [2]: 19 µg/mL | S. sanguis MIC [2]: 30 to 40 µg/mL | S. aureus IC50 [1]: 11 µg/mL | S. aureus MIC [1]: 15 to 21 µg/mL | % hemolysis at 350 μg/ml [3]: 3% | MRSA IC50 [5]: 18 µg/mL | MRSA MIC [5]: 21 to 42 µg/mL
